The test system of data set [1] is P. aeruginosa. The data set is described as follows: MIC, broth microdilution (Table 4). Type of data set: cell-based, Pseudomonas aeruginosa. As to conditions: for MIC P. aeruginosa: Table 4. Here is the method:
(§1) MIC testing was performed according to Clinical and Laboratory Standards Institute (CLSI) M7-A7 (2006) broth microdilution methods. Unless otherwise indicated, MIC values are provided in units of micrograms per milliliter.
(§2) One day prior to testing, individual colonies were isolated by streaking onto rich, non-selective Tryptic Soy agar with 5% lysed sheeps blood (TSAB) with incubation at 35-37° C. for 18-24 hours.
(§3) Cultures were prepared by touching 3-5 colonies into 3 mL of Cation adjusted Mueller Hinton Broth (caMHB) in a 14 mL tube (CaMHB was prepared and sterilized according to manufacturer's specifications). Cultures were grown at 37° C. 200 rpm for approximately four hours prior to density adjustment for addition to the MIC assay.
(§4) OD600 of growing cultures was measured and adjusted to approximately 10^5 colony forming units per mL (CFU/mL) in caMHB for MIC inoculation (approximately OD600 0.001).
(§5) Diluted cultures were used to inoculate 50 μL per well in broth microdilution assays (final volume 100 μl per well; compounds were prepared in two-fold dilutions).
(§6) Plates were incubated 16-20 hrs at 37° C., with shaking at 200 rpm.
(§7) OD600 was determined for all wells. Growth was defined as OD600>0.1. MICs were defined as the lowest concentration producing no visible turbidity (OD600<0.1).
On the technique in general: In broth dilution the organism is exposed to a series of concentrations in liquid medium.

Data set [2] can be described thus: Cell culture cytotoxicity assay (ATP bioluminescence, LLC-PK1). Type of data set: cell-based, rat. As to conditions: read-out: EC50, rat kidney proximal tubule cell culture cytotoxicity assay. The protocol: (§8) Day 1: 1×10^5 to 2×10^5 cellswere inoculated (Cell line: LLC-PK1) per flask, containing 4 mL/T25 flask of medium DMEM-F12 (50/50) media supplemented with 10% FBS (Fetal Bovine Serum). The cells were then incubated at 37° C., 5% CO2, 80% RH.
(§9) Day 4: The cell cultures were examined to determine 80% confluency. To trypsinize of the 80% confluent flasks, 4 mL of DMEM-F12-10% FBS media was prepared per flask. The media was aspirated from the flask and 5 mL of Versene was added to rinse the flask. The Versene was aspirated and 2 mL of triple Express solution (trypsin solution) was added. The cells were incubated for 5 min at room temperature and examined via microscopy for the rounding of the cells and their detachment. To speed up the reaction, the flask can be incubated at 37° C. for 3 minutes. 4 mL of media (DMEM-F12-10%FBS) was added to stop the reaction. Using a 5 mL pipette, the completed reaction was pipetted up and down to ensure that the cells were properly detached from the flask and from each others. The cell number was counted using a hemocytometer slide. 100 μL of cell suspension was transferred to a tube and 100 μL of Trypan Blue was added. Inoculum for 96 well is 10,000 cells per well. For one 96 well plate, 26.3 μL×110 well=2893 μL total. 2.9 mL of cell suspension was mixed with 8.1 mL of media DMEM-F12-10% FBS and 100 μL was distributed to each well using a multichannel pipetter. The plate was then Incubated for 24 h at 37° C.
(§10) Day 5: DMEM-F12 (no FBS) medium was dispensed into tubes with the test article to achieve final concentrations of […]. The 96 well plate was taken off the incubator and media was removed from each well using multichannel pipetter. 80 μL of serially diluted compounds of Formula (I) was added to each well. Every set of concentration was done in triplicate. Media and positive controls were added to each plate and the plates were incubated for 24 hours at 37° C.
(§11) Day 6: The plates were taken from the incubator, the media was removed from each well, and 100 μL of fresh media DMEM-F12 (this is equivalent to a rinse and the media can be replaced with PBS) was added. The media is then removed and 80 μL of cell lysis solution is added. After 5 minutes, 80 μL of sterile filtered high quality water was added to each well. Using a white or black 96 well reaction plate, 80 μL of 25× diluted ATP mix reagent (Sigma Bioluminescent Somatic Cell Assay Kit [cat #FL-ASC]) was added into one column. 80 μL of diluted ATP standards (dilutions used: 250, 500, 1000, 2000 and 4000) was added and the plate was read immediately in the topcount with a 2 second read time. In another white or black 96 well reaction plate, 80 μL of 25× diluted ATP mix reagent (plate A) was added and 80 μL of lysis-water solution was transferred to each column of plate A. The plate was then read immediately in the topcount with a 2 second read time. This process was repeated for next consecutive plate and the EC50 for certain compounds of Formula I were calculated and provided in Table 4.

In a further data set the test system is E. coli. The data set is described as follows: MIC90, broth microdilution, panel of Gram negative clinical isolates. In kind it is cell-based, Escherichia coli. The note with it: 80 strains; some strains multi-drug resistant. The protocol: (§12) To evaluate the potency and spectrum of compounds of Formula (I), (i.e., Compounds designated 5 and 6), a study was conducted that put together a panel of 455 Gram negative strains, which included multi-drug resistant clinical isolates selected from various surveillance programs. Table 3A lists the strains that were included in the study and the activity of Compound 5, Compound 6, and colistin (polymyxin E, abbreviated PME). Strains with acquired resistance to colistin and/or carbapenems and/or broad spectrum cephalosporins were pre-selected and included in all organism groups evaluated.
as §1, §2, §3, §4, §5, §6, §7

A further data set has as its system K. pneumonia. The data set is described as above. Type of data set: cell-based, Klebsiella pneumoniae. The note with it: 81 strains; some strains multi-drug resistant. Here is the method: as §12, §1, §2, §3, §4, §5, §6, §7
In the next data set the test system is Citrobacter spp. Described as above. The note with it: 20 strains; some strains multi-drug resistant. In kind it is cell-based. The protocol:
as §12, §1, §2, §3, §4, §5, §6, §7

In another data set the test system is Acinetobacter spp. The description is as above. The note with it: 81 strains. In kind it is cell-based. Here is the method: as §12, §1, §2, §3, §4, §5, §6, §7
For a further data set, the system named is Enterobacter. The data set is described as above. Type of data set: cell-based. As to conditions: 20 strains; some strains multi-drug resistant. Here is the method: as §12, §1, §2, §3, §4, §5, §6, §7
For data set [3], the system named is P. aeruginosa. The data set is described as above. In kind it is cell-based, Pseudomonas aeruginosa. As to conditions: for MIC90 P. aeruginosa: 100 strains. Here is the method:
as §12, §1, §2, §3, §4, §5, §6, §7

Data set [4] has as its system Rat kidney proximal tubule cells. The data set is described as follows: Cell culture cytotoxicity assay (ATP bioluminescence, LLC-PK1). As to conditions: LLC-PK1, 24 hours, ATP readout. In kind it is cell-based. The protocol: as §8, §9, §10, §11
The next data set has as its system S. maltophilia. As to the kind of experiment: MIC90, broth microdilution, panel of Gram negative clinical isolates. In kind it is cell-based, Stenotrophomonas maltophilia. The note with it: 25 strains. The protocol:
as §12, §1, §2, §3, §4, §5, §6, §7

For another data set, the system named is P. aeruginosa #44. As to the kind of experiment: MIC, broth microdilution. Type of data set: cell-based, Pseudomonas aeruginosa. The note with it: Table 5; range of repeated tests. Here is the method: as §1, §2, §3, §4, §5, §6, §7
P. aeruginosa #44 or K. pneumoniae #21 were grown in cation adjusted Mueller Hinton Broth (caMHB) (catalog #B12322; Fisher Scientific, Pittsburgh, Pa.) at 37° C. MIC testing was performed according to Clinical and Laboratory Standards Institute [CLSI, formerly National Committee for Clinical Laboratory Standards (NCCLS), Wayne, Pa.] guidelines for broth microdilution.
(§13) MIC testing was performed according to CLSI (formerly NCCLS) guidelines for broth microdilution.

For the next data set, the system named is patients. As to conditions: human, in vivo; cited from earlier work.
Data set [5] relates to Acinetobacter baumannii 1570. As to the kind of experiment: MIC, broth microdilution. In kind it is cell-based. The note with it: Table 8; range of repeated tests. Here is the method: as §1, §2, §3, §4, §5, §6, §7
A. baumannii #1570 were grown in cation adjusted Mueller Hinton Broth (caMHB) (catalog #B12322; Fisher Scientific, Pittsburgh, Pa.) at 37° C. MIC testing was performed according to Clinical and Laboratory Standards Institute [CLSI, formerly National Committee for Clinical Laboratory Standards (NCCLS), Wayne, Pa.] guidelines for broth microdilution.
as §13

≈ marks a conversion by molar mass, not a printed value. Marks after values point to notes of the source that are not given here. Numbered stars: 1 amine (or outer) side, 2 acyl side, 3 side chain; on linkers, the order of the positions; unused ones are H or OH. Bridge positions count the residues as written; N and C are the ends. Square brackets hold non-standard residues; d marks the D form. Peptide text beside a SMILES is read from it. * marks the point of attachment. NH(3-Cl-phenyl) = Clc1cccc(N*)c1; NH(2-ClPh) = Clc1ccccc1N*; Dab = NCC[C@H](N)C(=O)O; CO = O=C([*:1])[*:2]

This is an account of results in patent US8343912B2, “Antibiotic compositions for the treatment of gram negative infections” (priority 2008, dated 2013).

One may read the EC50 as the midpoint of the concentration-response curve. As to `CC(C)C[C@@H]1NC(=O)[C@@H](Cc2ccccc2)NC(=O)[C@H](CCN)NC(=O)[C@@H](NC(=O)[C@H](CCN)NC(=O)[C@@H](NC(=O)[C@H](CCN)NC(=O)Nc2cccc(Cl)c2)[C@@H](C)O)CCNC(=O)[C@H]([C@@H](C)O)NC(=O)[C@H](CCN)NC(=O)[C@H](CCN)NC1=O` [Compound 4] ({NH(3-Cl-phenyl)-CO}-[Dab]T[Dab][Dab][Dab][dF]L[Dab][Dab]T; lactam 4-C), in the data set on P. aeruginosa [1], the “activity against bacteria compared with polymyxin B” value is reported as “as active or more active” and the “MIC P. aeruginosa” value amounted to 2 micrograms/ml. For the same molecule, the half-maximal effective concentration (EC50) in data set [2] stood at 691 µg/mL (≈ 568 µM).
On to `CC[C@H](C)[C@@H]1NC(=O)[C@@H](Cc2ccccc2)NC(=O)[C@H](CCN)NC(=O)[C@@H](NC(=O)[C@H](CCN)NC(=O)[C@@H](NC(=O)[C@H](CCN)NC(=O)Nc2ccccc2Cl)[C@@H](C)O)CCNC(=O)[C@H]([C@@H](C)O)NC(=O)[C@H](CCN)NC(=O)[C@H](CCN)NC1=O` [Compound 6] ({NH(2-ClPh)-CO}-[Dab]T[Dab][Dab][Dab][dF]I[Dab][Dab]T; lactam 4-C), for which the “MIC90 E. coli” value against E. coli was determined as 4 micrograms/mL. Moreover, in the data set with K. pneumonia, the “MIC90 K. pneumonia” value was found to be 4 micrograms/mL. In addition, in the data set with P. aeruginosa [1], the “activity against bacteria compared with polymyxin B” value is recorded as “as active or more active” and the “MIC P. aeruginosa” value was 1 micrograms/ml. The “MIC90 Citrobacter spp.” value with Citrobacter spp. is reported as 1 micrograms/mL. Further, in the data set with Acinetobacter spp, the “MIC90 Acinetobacter spp” value is on record as 2 micrograms/mL. For the same molecule, the “MIC90 Enterobacter” value against Enterobacter is reported as above 16 micrograms/mL. In the data set with P. aeruginosa [3], the “MIC90 P. aeruginosa” value is 8 micrograms/mL. In addition, the “decrease in activity against colistin susceptible P. aeruginosa” value with P. aeruginosa [3] (relative to colistin / Compound 5) is recorded as “approximately 4 fold”. For the same molecule, the “EC50 Rat kidney proximal tubule cells” value in data set [4] is reported as above 1000 micrograms/ml. In [2], the half-maximal effective concentration (EC50) is above 1000 µg/mL. In addition, in the data set with S. maltophilia, the “MIC90 S. maltophilia” value is on record as 16 micrograms/mL.
On to colistin [reference compound], for which the “MIC against P. aeruginosa #44” value in the data set on P. aeruginosa #44 was 2-4 micrograms/ml. In addition, the “overall incidence of neurotoxicity or neuropathy” value with patients is reported as 7.3%. In addition, in the data set with E. coli, the “MIC90 E. coli” value is 2* micrograms/mL. In addition, in the data set with K. pneumonia, the “MIC90 K. pneumonia” value was 4* micrograms/mL. Further, in the data set on Citrobacter spp., the “MIC90 Citrobacter spp.” value is 0.5* micrograms/mL. Further, the “MIC90 Acinetobacter spp” value with Acinetobacter spp turned out to be 4 micrograms/mL. Further, the “MIC90 Enterobacter” value against Enterobacter was >64* micrograms/mL. In the data set with P. aeruginosa [3], the “MIC90 P. aeruginosa” value was 2 micrograms/mL. Further, in data set [5], the “MIC against A. baumannii #1570” value was found to be 2 micrograms/ml. The “MIC90 S. maltophilia” value in the data set with S. maltophilia came out at 16 micrograms/mL.
